# In US8637493B2, “Methods for treating glioblastoma” (University of Massachusetts, priority 2009, dated 2014):
# Where “and” joins values, the source holds several entries; their conditions need not be identical. Equal values may be shown once.
# Columns and labels:
# [1] = system: U373NS; assay: Neurosphere formation / recovery / secondary neurosphere assay, U373NS; assay type: cell-based, human
# Description: (§1) The effect of chemotherapy on neurosphere formation was assayed in glioma neurosphere cultures. Cultures are treated with a single dose of the agent, e.g., TMZ and multiple doses of a GSI, e.g., DAPT to inhibit the Notch pathway. After the Treatment phase, the number of initial spheres (counted about 7 days after TMZ treatment) represents the number of proliferating CSC/progenitors (FIG. 1 for schematic). Recovery (counted 14 days after TMZ treatment) includes enlargement of the initial spheres and new spheres formed when CSC/progenitor cells quiescent as a result of chemotherapy resume cell proliferation. […] The cells used included U87NS, a neurosphere culture converted to neurosphere growth in defined medium from U87MG (an old Swedish line that is grown in conventional serum conditions); GS7-2, GS8-26 and GS6-22 primary neurosphere cultures that were obtained from grade IV GBM patient tumor samples and AS5-15, which was obtained from a grade III anaplastic astrocytoma.
# (§2) To determine the effects of TMZ plus DAPT neurospheres, cells were plated as previously described (Mihaliak et al., Cancer Letts. 296, 168-177 (2010)). Immediately after plating, cells were treated with DMSO, DAPT-only, LY411,575 (LY)-only TMZ-only, TMZ+DAPT or TMZ+LY. The initial neurospheres were counted on day 7 for the converted cell lines and on day 10 for the slower growing primary lines. Neurosphere recovery was measured on day 14 or 20. The neurospheres were dissociated, re-plated and secondary neurosphere formation was measured on day 21 or 30.
# (§3) Neurosphere cultures were dissociated to single cell suspensions by pH dissociation followed by filtration through 40 μm screens. For the neurosphere assay, 3,000 cells/ml of defined medium were seeded in 6-well plates. Immediately after plating, cells were treated with DMSO (Research Organics, Cleveland, Ohio) carrier control, TMZ-only, DAPT-only, or TMZ+DAPT. Additional DAPT was added on days 2 and 4. Neurospheres consisting of 10 or more cells were counted under a light microscope on day 7 for the converted cell lines. Primary lines have a slightly longer doubling time and were counted on day 10. After counting the neurospheres from the initial treatment, 2 ml of fresh defined medium was added to each well. DAPT was also added once more to the DAPT-only and TMZ+DAPT samples, and the cells were incubated for an additional 7 or 10 days. Neurospheres from the recovery period were counted on day 14 or day 20. To analyze secondary neurosphere formation, cells were collected, pelleted and dissociated to a single cell suspension by the pH method. Cells from each well were re-seeded into 6-well plates with 2 ml of defined medium. The number of secondary neurospheres formed by converted cell lines and primary cultures were counted on day 21 or day 30, respectively. All recovery assays were repeated with a minimum of 6 replicate sets of time points.
# [2] = system: U373NS; assay: Ex vivo treated cells, subcutaneous xenograft tumor initiation, U373NS; assay type: in vivo, nude mice; settings: 3 × 10^6 live cells injected, TMZ 200 μM, DAPT 5 μM
# Description: (§4) U87NS and U373NS neurospheres were dissociated and 2.5×10^4 cells/ml were plated in defined media and treated with DMSO, TMZ-only (200 μM), DAPT-only (1 μM or 5 μM), or TMZ+DAPT as described for recovery assays. After 7 days, 3×10^6 live cells were counted using trypan blue and re-suspended in 100 μl PBS. Cells were subcutaneously injected into the flanks of nude mice. Mice were monitored for tumor formation for up to 120 days post-injection and euthanized when tumors reached volumes of 1.5 to 2 cm^3.
# as §4, with “U373NS” for “U87NS and U373NS”, “(FIG. 8B and Table 1).” for “as described for recovery assays.”, “cm^3. The control DMSO cells formed palpable tumors in an average of 15 days for 7/7 xenografts, and DAPT-only treated cells formed tumors in an average of 16 days for 7/7 xenografts. […] Palpable tumors formed for 6/7 TMZ-treated U373NS xenografts in an average of 43 days. […] Only 1/7 mice formed a tumor in the TMZ+DAPT U373NS xenografts with an extended latency of 96 days.” for “cm^3.”
# [3] = system: GS7-2; assay: Neurosphere formation / recovery / secondary neurosphere assay, GS7-2; assay type: cell-based, human
# Description: as §1, §2, §3
# (§5) For the samples labeled “PRE-treat”, a single dose of DAPT was administered when the cells were plated, and then TMZ was added to the medium 24 hours later. For the “CO-treat” samples, single doses of TMZ and DART were added simultaneously when the cells were plated. Finally, samples labeled “POST-treat” were treated with TMZ, and then DAPT was added 24 hours later.
# [4] = system: U87NS cells; assay: Ex vivo treated cells, subcutaneous xenograft tumor initiation, U87NS; assay type: in vivo, nude mice
# Description: U87NS cells were treated in vitro as follows. The cells were dissociated and 2.5×10^4 cells/ml were plated defined media and treated with DMSO, TMZ-only (200 μM), DAPT-only (1 μM or 5 μM), or TMZ+DAPT as described for recovery assays (FIG. 8A and Table 1). After 7 days, 2.5×10^5 live cells were counted using trypan blue and re-suspended in 100 μl PBS and subcutaneously injected into nude mice. Mice were monitored for tumor formation for up to 120 days post-injection and euthanized when tumors reached volumes of 1.5 to 2 cm3. Tumor initiation was observed when a palpable tumor formed. […] Impressively, none of the mice injected with TMZ+DAPT treated cells (0/7 mice) formed tumors, even after 90 days. When a higher number of live U87NS cells (3×10^6) were injected, we saw a similar trend (Table 1). Mice with 3×10^6 cells for U87NS DMSO (2/2 mice) and DAPT-only (2/2 mice) xenografts developed palpable tumors at 3 and 4 days, respectively, and 3/4 mice formed tumors in TMZ-only treated cells with an average latency of 25 days. With this higher number of cells injected, U87NS TMZ+DAPT xenografts formed tumors in only 1/4 mice with a longer latency of 43 days.
# as §4
# [5] = system: U87NS; assay: Neurosphere formation / recovery / secondary neurosphere assay, U87NS; assay type: cell-based, human
# Description: as §1, §2, §3, §5
# [6] = 10 μM DAPT alone, counted day 7
# [7] = low concentrations (1-5 μM) DAPT-only, day 7
# [8] = 2.5 × 10^5 live cells injected, TMZ 200 μM, DAPT 1 μM
# [9] = secondary neurospheres divided by recovery neurospheres
structure (smiles),measurement,setting,value
"C[C@H](NC(=O)Cc1cc(F)cc(F)c1)C(=O)N[C@H](C(=O)OC(C)(C)C)c1ccccc1 [DAPT, N-[N-(3,5-difluorophenacetyl)-L-alanyl]-(S)-phenylglycine t-butyl ester]",decrease of neurosphere formation compared to DMSO controls,[1]; [6],39%
same,inhibition of neurosphere formation,[1]; [7],minimal inhibition
same,Ex vivo Treated Xenograft Average Latency,[2],16 days
same,Ex vivo Treated Xenograft Incidence,[2],7/7
same,decrease of neurosphere formation compared to DMSO controls,"[3]; 10 μM DAPT alone, counted day 10",49%
same,inhibition of neurosphere formation,"[3]; low concentrations (1-5 μM) DAPT-only, day 10",minimal inhibition
same,Ex vivo Treated Xenograft Average Latency,[4]; [8],14 days
same,Ex vivo Treated Xenograft Incidence,[4]; [8],7/7
same,Ex vivo Treated Xenograft Average Latency,[4]; 3 × 10^6 live cells injected,4 days
same,Ex vivo Treated Xenograft Incidence,[4]; 3 × 10^6 live cells injected,2/2
same,decrease of neurosphere formation compared to DMSO controls,[5]; [6],41%
same,inhibition of neurosphere formation,[5]; [7],minimal inhibition
"Cn1nnc2c(C(N)=O)ncn2c1=O [TMZ, temozolomide]",recovery: increase in the number of neurospheres,"[1]; day 14 relative to day 7, TMZ 200 μM, DAPT 5 μM",1.5 fold
same,"secondary neurosphere formation, TMZ-only treated culture relative to TMZ+DAPT treated culture","[1]; day 21, P<0.001",23 fold
same,average number of cells per neurosphere capable of self-renewal,[1]; [9],3 cells per neurosphere
same,Ex vivo Treated Xenograft Average Latency,[2],43 days and 45 days
same,Ex vivo Treated Xenograft Incidence,[2],6/7
same,secondary neurosphere formation relative to DAPT POST-treatment,"[3]; TMZ-only treatment, P<0.0001",85.7 fold
same,recovery: increase in the number of neurospheres,"[3]; day 20 relative to day 10, DAPT 1 μM",1.8 fold
same,"secondary neurosphere formation, TMZ-only treated culture relative to TMZ+DAPT treated culture","[3]; day 30, P<0.001",45 fold
same,average number of cells per neurosphere capable of self-renewal,[3]; [9],38 cells per neurosphere
same,Ex vivo Treated Xenograft Average Latency,[4]; [8],32 days
same,Ex vivo Treated Xenograft Incidence,[4]; [8],6/7
same,Ex vivo Treated Xenograft Average Latency,[4]; 3 × 10^6 live cells injected,25 days
same,Ex vivo Treated Xenograft Incidence,[4]; 3 × 10^6 live cells injected,3/4
same,secondary neurosphere formation relative to DAPT POST-treatment,"[5]; TMZ-only treatment, P<0.001",5.7 fold
same,recovery: increase in the number of neurospheres,"[5]; day 14 relative to day 7, TMZ 200 μM, DAPT 1 μM",2 fold
same,"secondary neurosphere formation, TMZ-only treated culture relative to TMZ+DAPT treated culture","[5]; day 21, P<0.0001",36 fold
same,average number of cells per neurosphere capable of self-renewal,[5]; [9],8 cells per neurosphere
